# Source: US9598423B2 (BRISTOL-MYERS SQUIBB COMPANY, priority 2013, dated 2017)
# Target: CK1δ (Homo sapiens (Human), UniProt P48730)
# Assay: CK1δ kinase assay (Caliper LABCHIP electrophoretic separation of fluoresceinated peptide substrate and product)
# Type: biochemical
# Conditions: 200 pM CK1δ, 50 μM ATP, 1.5 μM peptide substrate, 22 hours at room temperature; read-out: CK1δ (IC50)
# Description: CK1ε and CK1δ Kinase Assays
# The kinase assay was performed in V-bottom 384-well plates. […] The reaction was incubated at room temperature for 22 hours and terminated by adding 45 μl of 35 mM EDTA to each sample. The reaction mixture was analyzed on the Caliper LABCHIP®3000 (Caliper, Hopkinton, Mass.) by electrophoretic separation of the unphosphorylated substrate and phosphorylated product. […] Compounds were dissolved at 10 mM in dimethylsulfoxide (DMSO) and evaluated at eleven concentrations. IC50 values were derived by non-linear regression analysis.
# CK1δ, sequence (P48730 whole entry): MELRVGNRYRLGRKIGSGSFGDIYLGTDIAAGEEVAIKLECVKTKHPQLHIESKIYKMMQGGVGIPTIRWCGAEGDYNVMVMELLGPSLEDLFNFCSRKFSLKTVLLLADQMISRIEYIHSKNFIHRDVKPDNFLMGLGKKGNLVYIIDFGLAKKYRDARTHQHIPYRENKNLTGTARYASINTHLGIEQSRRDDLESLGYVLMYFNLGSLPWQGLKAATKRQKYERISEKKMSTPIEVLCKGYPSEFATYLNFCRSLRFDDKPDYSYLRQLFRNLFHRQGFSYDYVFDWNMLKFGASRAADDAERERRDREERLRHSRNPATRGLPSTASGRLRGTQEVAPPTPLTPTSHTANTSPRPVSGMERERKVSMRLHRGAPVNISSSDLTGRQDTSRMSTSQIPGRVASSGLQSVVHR
row,IC50,Compound
1,0.01 to 10 nM,"NC(=O)c1c(-c2cccc(F)c2)nn2c1CN(C(=O)Nc1cncnc1)CC2 [Compound 84, 2-(3-Fluorophenyl)-N^5-(pyrimidin-5-yl)-6,7-dihydropyrazolo[1,5-a]pyrazine-3,5(4H)-dicarboxamide]"
2,0.01 to 10 nM,"Cc1ccc(NC(=O)N2CCn3nc(-c4cccc(F)c4)c(C(N)=O)c3C2)cn1 [Compound 86, 2-(3-Fluorophenyl)-N^5-(6-methylpyridin-3-yl)-6,7-dihydropyrazolo[1,5-a]pyrazine-3,5(4H)-dicarboxamide]"
3,0.01 to 10 nM,"NC(=O)c1c(-c2cccc(F)c2)nn2c1CN(C(=O)Nc1ccc(F)nc1)CC2 [Compound 87, 2-(3-Fluorophenyl)-N^5-(6-fluoropyridin-3-yl)-6,7-dihydropyrazolo[1,5-a]pyrazine-3,5(4H)-dicarboxamide]"
4,0.01 to 10 nM,"NC(=O)c1c(-c2cccc(F)c2)nn2c1CN(C(=O)Nc1ccc(OC(F)F)cc1)CC2 [Compound 89, N^5-(4-(Difluoromethoxy)phenyl)-2-(3-fluorophenyl)-6,7-dihydropyrazolo[1,5-a]pyrazine-3,5(4H)-dicarboxamide]"
5,0.01 to 10 nM,"NC(=O)c1c(-c2cccc(F)c2)nn2c1CN(C(=O)Nc1ccnc(Cl)c1)CC2 [Compound 90, N^5-(2-Chloropyridin-4-yl)-2-(3-fluorophenyl)-6,7-dihydropyrazolo[1,5-a]pyrazine-3,5(4H)-dicarboxamide]"
6,0.01 to 10 nM,CC(=O)N1CCC(NC(=O)N2CCn3nc(-c4cccc(F)c4)c(C(N)=O)c3C2)CC1 [Compound 97]
7,0.01 to 10 nM,"NC(=O)c1c(-c2cccc(F)c2)nn2c1CN(C(=O)NC1CCN(S(=O)(=O)C3CC3)CC1)CC2 [Compound 102, N^5-(1-(Cyclopropylsulfonyl)piperidin-4-yl)-2-(3-fluorophenyl)-6,7-dihydropyrazolo[1,5-a]pyrazine-3,5(4H)-dicarboxamide]"
8,0.01 to 10 nM,"CC(C)(C)NC(=O)N1CCn2nc(-c3cc(F)cc(F)c3)c(C(N)=O)c2C1 [Compound 105, N^5-(tert-Butyl)-2-(3,5-difluorophenyl)-6,7-dihydropyrazolo[1,5-a]pyrazine-3,5(4H)-dicarboxamide]"
9,0.01 to 10 nM,"COc1cc(F)cc(-c2nn3c(c2C(N)=O)CN(C(=O)NC(C)(C)C)CC3)c1 [Compound 137, N^5-(tert-Butyl)-2-(3-fiuoro-5-methoxyphenyl)-6,7-dihydropyrazolo[1,5-a]pyrazine-3,5(4H)-dicarboxamide]"
10,0.01 to 10 nM,"CSc1cccc(-c2nn3c(c2C(N)=O)CN(C(=O)NC(C)(C)C)CC3)c1 [Compound 150, N^5-(tert-Butyl)-2-(3-(methylthio)phenyl)-6,7-dihydropyrazolo[1,5-a]pyrazine-3,5(4H)-dicarboxamide]"
11,0.01 to 10 nM,"N#Cc1ccc(NC(=O)N2Cc3c(C(N)=O)c(-c4ccc(F)c(Cl)c4)nn3[C@@H](C(F)F)C2)cc1F [Compound A23, (R)-2-(3-Chloro-4-fluorophenyl)-N^5-(4-cyano-3-fluorophenyl)-7-(difluoromethyl)-6,7-dihydropyrazolo[1,5-a]pyrazine-3,5(4H)-dicarboxamide]"

row,Compound,IC50
1,"N#Cc1ccc(NC(=O)N2Cc3c(C(N)=O)c(-c4ccc(F)c(Cl)c4)nn3[C@H](C(F)F)C2)cc1Cl [Compound A18, (S)—N^5-(3-Chloro-4-cyanophenyl)-2-(3-chloro-4-fluorophenyl)-7-(difluoromethyl)-6,7-dihydropyrazolo[1,5-a]pyrazine-3,5(4H)-dicarboxamide]",0.01 to 10 nM
2,"N#Cc1ccc(NC(=O)N2Cc3c(C(N)=O)c(-c4ccc(F)c(Cl)c4)nn3C(C(F)F)C2)cc1Cl (stereo not shown) [Compound A19, N^5-(3-Chloro-4-cyanophenyl)-2-(3-chloro-4-fluorophenyl)-7-(difluoromethyl)-6,7-dihydropyrazolo[1,5-a]pyrazine-3,5(4H)-dicarboxamide]",0.01 to 10 nM
